{
  "source": "PubChem BioAssay (NCI)",
  "test_in_all_cases": "growth of human tumour cells (NCI), 48 h",
  "key": {"HCT-15 colon": {"test_system": "HCT-15 colon"}, "786-0 renal": {"test_system": "786-0 renal"}, "HOP-62 NSCLC": {"test_system": "HOP-62 NSCLC"}, "BT-549 breast": {"test_system": "BT-549 breast"}, "M14 melanoma": {"test_system": "M14 melanoma"}, "MDA-MB-231 breast": {"test_system": "MDA-MB-231 breast"}, "SF-539 CNS": {"test_system": "SF-539 CNS"}, "HT29 colon": {"test_system": "HT29 colon"}, "RXF 393 renal": {"test_system": "RXF 393 renal"}, "SK-MEL-5 melanoma": {"test_system": "SK-MEL-5 melanoma"}, "T-47D breast": {"test_system": "T-47D breast"}, "K-562 leukemia": {"test_system": "K-562 leukemia"}, "KM12 colon": {"test_system": "KM12 colon"}, "HS 578T breast": {"test_system": "HS 578T breast"}, "CCRF-CEM leukemia": {"test_system": "CCRF-CEM leukemia"}, "SF-295 CNS": {"test_system": "SF-295 CNS"}, "HCC-2998 colon": {"test_system": "HCC-2998 colon"}, "COLO 205 colon": {"test_system": "COLO 205 colon"}, "NCI/ADR-RES ovarian": {"test_system": "NCI/ADR-RES ovarian"}, "SNB-75 CNS": {"test_system": "SNB-75 CNS"}, "OVCAR-8 ovarian": {"test_system": "OVCAR-8 ovarian"}, "U251 CNS": {"test_system": "U251 CNS"}, "DU-145 prostate": {"test_system": "DU-145 prostate"}, "NCI-H522 lung": {"test_system": "NCI-H522 lung"}, "MOLT-4 leukemia": {"test_system": "MOLT-4 leukemia"}, "UACC-257 melanoma": {"test_system": "UACC-257 melanoma"}, "NCI-H226 lung": {"test_system": "NCI-H226 lung"}, "A549 NSCLC": {"test_system": "A549 NSCLC"}, "CAKI-1 renal": {"test_system": "CAKI-1 renal"}},
  "note": "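Test compounds were applied to cells in 96-well plates for 48 hours at 5 doses. Abbreviation: GI50, concentration required for 50% inhibition of growth. TGI marks complete inhibition of growth.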",
  "data": [
    {"smiles": "CSc1ccc(/C(=N/N=C(N)N)c2ccc(F)cc2)cc1", "values": [
      {"measurement": "GI50", "setting": "HCT-15 colon", "value": 341, "unit": "nM"},
      {"measurement": "TGI", "setting": "HCT-15 colon", "value": 9.85, "unit": "µM"},
      {"measurement": "GI50", "setting": "786-0 renal", "value": 802, "unit": "nM"},
      {"measurement": "TGI", "setting": "786-0 renal", "value": 12.5, "unit": "µM"},
      {"measurement": "GI50", "setting": "HOP-62 NSCLC", "value": 755, "unit": "nM"},
      {"measurement": "TGI", "setting": "HOP-62 NSCLC", "value": 9.2, "unit": "µM"},
      {"measurement": "GI50", "setting": "BT-549 breast", "value": 5.6, "unit": "µM"},
      {"measurement": "TGI", "setting": "BT-549 breast", "value": 17.1, "unit": "µM"},
      {"measurement": "GI50", "setting": "M14 melanoma", "value": 308, "unit": "nM"},
      {"measurement": "TGI", "setting": "M14 melanoma", "value": 1100, "unit": "nM"},
      {"measurement": "GI50", "setting": "MDA-MB-231 breast", "value": 807, "unit": "nM"},
      {"measurement": "TGI", "setting": "MDA-MB-231 breast", "value": 10, "unit": "µM"},
      {"measurement": "GI50", "setting": "SF-539 CNS", "value": 367, "unit": "nM"},
      {"measurement": "TGI", "setting": "SF-539 CNS", "value": 1650, "unit": "nM"},
      {"measurement": "GI50", "setting": "HT29 colon", "value": 350, "unit": "nM"},
      {"measurement": "TGI", "setting": "HT29 colon", "value": 5.47, "unit": "µM"},
      {"measurement": "GI50", "setting": "RXF 393 renal", "value": 189, "unit": "nM"},
      {"measurement": "TGI", "setting": "RXF 393 renal", "value": 708, "unit": "nM"},
      {"measurement": "GI50", "setting": "SK-MEL-5 melanoma", "value": 393, "unit": "nM"},
      {"measurement": "TGI", "setting": "SK-MEL-5 melanoma", "value": 1490, "unit": "nM"},
      {"measurement": "GI50", "setting": "T-47D breast", "value": 560, "unit": "nM"},
      {"measurement": "TGI", "setting": "T-47D breast", "value": 11.7, "unit": "µM"},
      {"measurement": "GI50", "setting": "K-562 leukemia", "value": 336, "unit": "nM"},
      {"measurement": "TGI", "setting": "K-562 leukemia", "value": 6.52, "unit": "µM"},
      {"measurement": "GI50", "setting": "KM12 colon", "value": 423, "unit": "nM"},
      {"measurement": "TGI", "setting": "KM12 colon", "value": 11.7, "unit": "µM"},
      {"measurement": "GI50", "setting": "HS 578T breast", "value": 872, "unit": "nM"},
      {"measurement": "TGI", "setting": "HS 578T breast", "value": 10.5, "unit": "µM"},
      {"measurement": "GI50", "setting": "CCRF-CEM leukemia", "value": 414, "unit": "nM"},
      {"measurement": "TGI", "setting": "CCRF-CEM leukemia", "value": 15.7, "unit": "µM"},
      {"measurement": "GI50", "setting": "SF-295 CNS", "value": 304, "unit": "nM"},
      {"measurement": "TGI", "setting": "SF-295 CNS", "value": 10.5, "unit": "µM"},
      {"measurement": "GI50", "setting": "HCC-2998 colon", "value": 314, "unit": "nM"},
      {"measurement": "TGI", "setting": "HCC-2998 colon", "value": 1180, "unit": "nM"},
      {"measurement": "GI50", "setting": "COLO 205 colon", "value": 415, "unit": "nM"},
      {"measurement": "TGI", "setting": "COLO 205 colon", "value": 1770, "unit": "nM"},
      {"measurement": "GI50", "setting": "NCI/ADR-RES ovarian", "value": 1660, "unit": "nM"},
      {"measurement": "TGI", "setting": "NCI/ADR-RES ovarian", "value": 7.25, "unit": "µM"},
      {"measurement": "GI50", "setting": "SNB-75 CNS", "value": 342, "unit": "nM"},
      {"measurement": "TGI", "setting": "SNB-75 CNS", "value": 5.56, "unit": "µM"},
      {"measurement": "GI50", "setting": "OVCAR-8 ovarian", "value": 1290, "unit": "nM"},
      {"measurement": "TGI", "setting": "OVCAR-8 ovarian", "value": 14.9, "unit": "µM"},
      {"measurement": "GI50", "setting": "U251 CNS", "value": 415, "unit": "nM"},
      {"measurement": "TGI", "setting": "U251 CNS", "value": 7.13, "unit": "µM"},
      {"measurement": "GI50", "setting": "DU-145 prostate", "value": 415, "unit": "nM"},
      {"measurement": "TGI", "setting": "DU-145 prostate", "value": 3.84, "unit": "µM"},
      {"measurement": "GI50", "setting": "NCI-H522 lung", "value": 392, "unit": "nM"},
      {"measurement": "TGI", "setting": "NCI-H522 lung", "value": 11.7, "unit": "µM"},
      {"measurement": "GI50", "setting": "MOLT-4 leukemia", "value": 533, "unit": "nM"},
      {"measurement": "TGI", "setting": "MOLT-4 leukemia", "value": 10.9, "unit": "µM"},
      {"measurement": "GI50", "setting": "UACC-257 melanoma", "value": 1460, "unit": "nM"},
      {"measurement": "TGI", "setting": "UACC-257 melanoma", "value": 11.2, "unit": "µM"},
      {"measurement": "GI50", "setting": "NCI-H226 lung", "value": 1850, "unit": "nM"},
      {"measurement": "TGI", "setting": "NCI-H226 lung", "value": 14.7, "unit": "µM"},
      {"measurement": "GI50", "setting": "A549 NSCLC", "value": 480, "unit": "nM"},
      {"measurement": "TGI", "setting": "A549 NSCLC", "value": 10.6, "unit": "µM"},
      {"measurement": "GI50", "setting": "CAKI-1 renal", "value": 536, "unit": "nM"},
      {"measurement": "TGI", "setting": "CAKI-1 renal", "value": 4.82, "unit": "µM"}
    ]}
  ]
}
